# Where two headings read alike, the source gives them in different places.
# Tests used:
# HIV protease = molecular target: T1, HIV protease (Human immunodeficiency virus type 1 group M subtype B, UniProt P04585); assay: HIV protease enzyme assay (fluorogenic substrate 2-aminobenzoyl-Ile-Nle-Phe(p-NO2)-Gln-ArgNH2); assay type: biochemical; conditions: for inhibition at 10 µM: at a concentration of 10 micromolar
# T1 construct: HIV protease is diluted in the assay buffer to a final enzyme concentration of 12.3 nanomolar, based on a molecular weight of 10,780
# Method: The compounds of the present invention are effective HIV protease inhibitors. […] The calculated IC50 (inhibiting concentration 50%, i.e., the concentration at which the inhibitor compound reduces enzyme activity by 50%) values are shown in Table 1. The enzyme method is described below. The substrate is 2-aminobenzoyl-Ile-Nle-Phe(p-NO2)-Gln-ArgNH2. The positive control is MVT-101 (Miller, M. et al, Science, 246, 1149 (1989)] The assay conditions are as follows:
# Assay buffer: 20 mM sodium phosphate, pH 6.4
# The above described substrate is dissolved in DMSO, then diluted 10 fold in assay buffer. Final substrate concentration in the assay is 80 μM.
# HIV protease is diluted in the assay buffer to a final enzyme concentration of 12.3 nanomolar, based on a molecular weight of 10,780.
# The final concentration of DMSO is 14% and the final concentration of glycerol is 18%. The test compound is dissolved in DMSO and diluted in DMSO to 10× the test concentration; 10 μL of the enzyme preparation is added, the materials mixed and then the mixture is incubated at ambient temperature for 15 minutes. The enzyme reaction is initiated by the addition of 40 μL of substrate. The increase in fluorescence is monitored at 4 time points (0, 8, 16 and 24 minutes) at ambient temperature. Each assay is carried out in duplicate wells.
# HIV-1 = assay: CEM cell assay: HIV inhibition in acutely infected cells (MTT colorimetric); assay type: cell-based; conditions: HIV-1 infected CEM cells, 7 days, concentration reducing cytopathicity by 50%, read-out: Antiviral Activity in Cell Culture (EC50)
# Method: (§1) The effectiveness of the compounds tested in Part A was also determined in a CEM cell assay. The HIV inhibition assay method of acutely infected cells is an automated tetrazolium based colorimetric assay essentially that reported by Pauwles et al, J. Virol. Methods 20, 309-321 (1988). Assays were performed in 96-well tissue culture plates. CEM cells, a CD4^+ cell line, were grown in RPMI-1640 medium (Gibco) supplemented with a 10% fetal-calf serum and were then treated with polybrene (2 μg/mL). An 80 μL volume of medium containing 1×10^4 cells was dispensed into each well of the tissue culture plate. To each well was added a 100 μL volume of test compound dissolved in tissue culture medium (or medium without test compound as a control) to achieve the desired final concentration and the cells were incubated at 37° C. For 1 hour. A frozen culture of HIV-1 was diluted in culture medium to a concentration of 5×10^4 TCID50 per mL (TCID50=the dose of virus that infects 50% of cells in tissue culture), and a 20 μL volume of the virus sample (containing 1000 TCID50 of virus) was added to wells containing test compound and to wells containing only medium (infected control cells). Several wells received culture medium without virus (uninfected control cells). Likewise, the intrinsic toxicity of the test compound was determined by adding medium without virus to several wells containing test compound. In summary, the tissue culture plates contained the following experiments:
# (§2) In experiments 2 and 4, the final concentrations of test compounds were 1, 10, 100 and 500 μg/mL. Either azidothymidine (AZT) or dideoxyinosine (ddI) was included as a positive drug control. […] DMSO was added to all control wells at an appropriate concentration.
# (§3) Following the addition of virus, cells were incubated at 37° C. in a humidified, 5% CO2 atmosphere for 7 days. Test compounds could be added on days 0, 2 and 5 if desired. On day 7, post-infection, the cells in each well were resuspended and a 100 μL sample of each cell suspension was removed for assay. A 20 μL volume of a 5 mg/mL solution of 3-(4,5-dimethylthiazol-2-yl)-2,5-diphenyltetrazolium bromide (MTT) was added to each 100 μL cell suspension, and the cells were incubated for 4 hours at […] in a 5% CO2 environment. […] To each sample was added 100 μL of 10% sodium dodecylsulfate in 0.01 N HCl to lyse the cells, and samples were incubated overnight. The absorbance at 590 nm was determined for each sample using a Molecular Devices microplate reader. Absorbance values for each set of wells is compared to assess viral control infection, uninfected control cell response as well as test compound by cytotoxicity and antiviral efficacy.
# (§4) The calculated EC^50 (effective concentration 50%, i.e., the concentration at which the inhibitor compound reduces cytopathicity by 50%) and TD^50 (toxic dose 50%, i.e., the concentration at which the inhibitor compound reduces cellular viability by 50%) values for these compounds are also shown in Table 1.
# [1] = CEM cell assay: intrinsic toxicity of test compound in uninfected cells (MTT); assay type: cell-based; conditions: human, uninfected CEM cells (CD4+ cell line); CEM cells without virus, 7 days, concentration reducing cellular viability by 50% (TD50)
# Method: as §1, §2, §3, §4
# CEM cells = assay: as above; assay type: cell-based
# Method: as §1, §2, §3, §4
# [2] = substrate 80 μM, HIV protease 12.3 nanomolar, pH 6.4, ambient temperature, read-out: Enzyme Inhibition (IC50)
# [3] = Human immunodeficiency virus 1, CCRF-CEM, 168 h
molecule,measurement,setting,value
"C[C@@H](C(=O)N[C@@H](Cc1ccccc1)[C@H](O)CN1C[C@H]2CCCC[C@H]2C[C@H]1C(=O)NC(C)(C)C)C(C)(C)C(N)=O (relative stereo) [Example 12, Butanamide, 4-[[3-[3-[[(1,1-dimethylethyl)-amino]carbonyl]octahydro-2 (1H)-isoquinolinyl]-2-hydroxy-1-(phenylmethyl)propyl]amino]-2,2,3-trimethyl-4-oxo-, [3S-[2[1R*(S*),2S*], 3α, 4aβ, 8 aβ]]]",IC50,HIV protease; [2],9 nM
same,EC50,HIV-1; [3],98 nM
same,IC50 at 7 days,[1],59000 nM
"CC(C)(C)NC(=O)[C@@H]1C[C@@H]2CCCC[C@@H]2CN1C[C@@H](O)[C@H](Cc1ccccc1)NC(=O)C[C@H](NC(=O)c1ccc2ccccc2n1)C(N)=O (relative stereo) [Example 10, butanediamide, N^4-[3-[3-[[(1,1-dimethylethyl)-amino]carbonyl]octahydro-2(1H)-isoquinolinyl]-2-hydroxy-1-(phenyl-methyl)propyl]-2-[(2-quinolinylcarbonyl)amino]-, [3S[2[1R*(R*),2S*], 3α,4aβ,8aβ]]]",IC50,HIV protease,9 nM
same,inhibition at 10 µM,HIV protease,3 to 100%
same,EC50,HIV-1; [3],37 nM
same,IC50 at 7 days,[1],5000 nM
"C[C@@H](C(=O)N[C@@H](Cc1ccccc1)[C@H](O)CN1C[C@H]2CCCC[C@H]2C[C@H]1C(=O)NC(C)(C)C)C(C)(C)C(N)=O [Example 12, Butanamide, 4-[[3-[3-[[(1,1-dimethylethyl)-amino]carbonyl]octahydro-2 (1H)-isoquinolinyl]-2-hydroxy-1-(phenylmethyl)propyl]amino]-2,2,3-trimethyl-4-oxo-, [3S-[2[1R*(S*),2S*], 3α, 4aβ, 8 aβ]]]",inhibition at 10 µM,HIV protease,3 to 100%
"C[C@@H](C(=O)N[C@@H](Cc1ccccc1)[C@H](O)CN1C[C@H]2CCCC[C@H]2C[C@H]1C(=O)NC(C)(C)C)C(C)(C)C(=O)O [Example 12C, butanoic acid, 4-[[3-[3-[[(1,1-dimethylethyl)amino]carbonyl]octahydro-2(1H)-isoquinolinyl]-2-hydroxy-1-(phenylmethyl)propyl]amino]-2,2,3-trimethyl-4-oxo-, [3S-[2[1R*(S*),2S*], 3α,4aβ, 8aβ]]-]",inhibition at 10 µM,HIV protease,3 to 100%
"C[C@H](CS(C)(=O)=O)C(=O)N[C@@H](Cc1ccccc1)[C@H](O)CN1C[C@H]2CCCC[C@H]2C[C@H]1C(=O)NC(C)(C)C (relative stereo) [Example 6, 3-Isoquinolinecarboxamide, N-(1,1-dimethylethyl)decahydro-2-[2-hydroxy-3-[[2-methyl-3-(methylsulfonyl)-1-oxopropyl]amino]-4-phenylbutyl]-, [3S-[2[2S*,3R*(R*)], 3α,4aβ,8aβ]]]",inhibition at 10 µM,HIV protease,3 to 100%
"3-Isoquinolinecarboxamide, N-(1,1-dimethylethyl)decahydro-2-[2-hydroxy-3-[[2-methyl-3-(methylsulfonyl)-1-oxopropyl]amino]-4-phenylbutyl]-, [3S-[2[2S*,3R*(R*)], 3α,4aβ,8aβ]] [Example 6]",IC50,HIV protease; [2],2 nM
same,EC50,HIV-1,52 nM
same,IC50,"CEM cells; CEM cells without virus, 7 days, concentration reducing cellular viability by 50% (TD50), read-out: Cell Toxicity (IC50)",2000 nM
"C[C@@H](C(=O)N[C@@H](Cc1ccccc1)[C@H](O)CN1C[C@H]2CCCC[C@H]2C[C@H]1C(=O)NC(C)(C)C)C(C)(C)C(=O)O (relative stereo) [Example 12C, butanoic acid, 4-[[3-[3-[[(1,1-dimethylethyl)amino]carbonyl]octahydro-2(1H)-isoquinolinyl]-2-hydroxy-1-(phenylmethyl)propyl]amino]-2,2,3-trimethyl-4-oxo-, [3S-[2[1R*(S*),2S*], 3α,4aβ, 8aβ]]-]",IC50,HIV protease; [2],23 nM
same,EC50,HIV-1; [3],184 nM
same,IC50 at 7 days,[1],50000 nM
"COc1ccc(COC(=O)NC[C@@H](C)C(=O)N[C@@H](Cc2ccccc2)[C@H](O)CN2C[C@H]3CCCC[C@H]3C[C@H]2C(=O)NC(C)(C)C)cc1 (relative stereo) [Example 4, carbamic acid, [3-[[3-[3-[[(1,1-dimethylethyl)-amino]carbonyl]octahydro-2(1H)-isoquinolinyl]-2-hydroxy-1-(phenyl-methyl)propyl]amino]-2-methyl-3-oxopropyl]-,(4-methoxyphenyl)methylester,[3S-[2[1R*(S*),2S*], 3α,4aβ,8aβ]]]",inhibition at 10 µM,HIV protease,3 to 100%
"COc1ccc(COC(=O)NCC(C)C(=O)NC(Cc2ccccc2)C(O)CN2CC3CCCCC3CC2C(=O)NC(C)(C)C)cc1 (stereo not drawn) [Example 4, carbamic acid, [3-[[3-[3-[[(1,1-dimethylethyl)-amino]carbonyl]octahydro-2(1H)-isoquinolinyl]-2-hydroxy-1-(phenyl-methyl)propyl]amino]-2-methyl-3-oxopropyl]-,(4-methoxyphenyl)methylester,[3S-[2[1R*(S*),2S*], 3α,4aβ,8aβ]]]",IC50,HIV protease; [2],7 nM
same,EC50,HIV-1,42 nM
same,IC50,CEM cells,58000 nM

# Source: patent publication US7312333B2, “Retroviral protease inhibitors” (Pharmacia Corporation, priority 1992, dated 2007)
